# Target: T1, LXRβ (Homo sapiens, UniProt P55055)
# T1 construct: Co-transfection expression plasmids, comprising full-length LXRα (pCMX-h LXRα or LXRβ (pCMX-hLXRβ)); expressed in transfected cells; host or cells: CV-1 African green monkey kidney cells, transient transfection with pCMX-hLXRβ
# T1 sequence (P55055 1-460): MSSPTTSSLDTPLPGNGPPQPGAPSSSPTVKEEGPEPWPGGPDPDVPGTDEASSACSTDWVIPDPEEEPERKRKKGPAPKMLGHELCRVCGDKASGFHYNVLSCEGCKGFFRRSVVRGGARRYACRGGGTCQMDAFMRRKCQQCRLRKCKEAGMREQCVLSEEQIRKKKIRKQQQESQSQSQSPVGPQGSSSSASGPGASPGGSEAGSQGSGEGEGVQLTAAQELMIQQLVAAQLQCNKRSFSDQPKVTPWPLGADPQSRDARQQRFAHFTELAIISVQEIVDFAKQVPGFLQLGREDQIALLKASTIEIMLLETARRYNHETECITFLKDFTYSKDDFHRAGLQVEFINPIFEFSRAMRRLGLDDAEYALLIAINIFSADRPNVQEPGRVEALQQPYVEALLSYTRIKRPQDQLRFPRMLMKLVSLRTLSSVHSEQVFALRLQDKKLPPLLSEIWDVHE
# T1 sequence (P19793 1-462 partner): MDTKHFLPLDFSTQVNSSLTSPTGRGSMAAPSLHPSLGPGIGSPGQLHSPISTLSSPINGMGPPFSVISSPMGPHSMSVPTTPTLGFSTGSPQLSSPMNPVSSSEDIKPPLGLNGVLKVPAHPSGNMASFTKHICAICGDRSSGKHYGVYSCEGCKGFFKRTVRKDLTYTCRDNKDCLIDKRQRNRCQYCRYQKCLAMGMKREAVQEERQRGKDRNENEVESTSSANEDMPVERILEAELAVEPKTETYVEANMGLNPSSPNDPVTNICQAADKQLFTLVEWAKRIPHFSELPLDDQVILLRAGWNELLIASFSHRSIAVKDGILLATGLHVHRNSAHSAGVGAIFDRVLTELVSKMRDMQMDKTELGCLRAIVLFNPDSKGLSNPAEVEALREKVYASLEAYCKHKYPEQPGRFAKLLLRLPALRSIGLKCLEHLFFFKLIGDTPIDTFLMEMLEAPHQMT
# Experiment: LXR/LXRE co-transfection assay (luciferase reporter) in CV-1 cells, LXRβ
# Assay type: cell-based
# Settings: for EC50: CV-1 cells transfected with pCMX-hLXRβ and LXREx1-Tk-Luciferase, 20 hours incubation, read-out: LXRbeta agonism EC50; for Emax: CV-1 cells, relative to maximum response of high control N-(3-((4-fluorophenyl)-(naphthalene-2-sulfonyl)amino)propyl)-2,2-dimethylpropionamide, read-out: LXRbeta % EFFICACY
# How it was run: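 CV-1 cells transiently co-transfected with full-length human LXRβ, LXRE-Tk-luciferase reporter and β-galactosidase control, then exposed to compound (≤0.5% DMSO) for 20 h at 37 °C before luminescence read. EC50 from 10-point, half-log dose curves; efficacy relative to the sulfonamide high control, means of 2–3 experiments.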
Structure (SMILES),EC50 [nM],Emax [%]
"Cc1nc(-c2cc(-c3ccc(CO)c(S(C)(=O)=O)c3)ccc2-n2nc(C(F)(F)F)cc2C)c(-c2ccc(OC(F)(F)F)cc2)o1 [Example 387, (4′-(5-methyl-3-(trifluoromethyl)-1H-pyrazol-1-yl)-3′-(2-methyl-5-(4-(trifluoromethoxy)phenyl)oxazol-4-yl)-3-(methylsulfonyl)biphenyl-4-yl)methanol]",82,79
"Cc1nc(-c2ccc(OC(F)(F)F)cc2)c(-c2cc(-c3cccc(S(C)(=O)=O)c3)ccc2-n2cc(C#N)c(C3CC3)n2)o1 [Example 447, 3-cyclopropyl-1-(3-(2-methyl-4-(4-(trifluoromethoxy)phenyl)oxazol-5-yl)-3′-(methylsulfonyl)-[1,1′-biphenyl]-4-yl)-1H-pyrazole-4-carbonitrile]",116,28
"Cc1nc(-c2ccc(OC(F)(F)F)cc2)c(-c2cc(-c3cccc(S(C)(=O)=O)c3)ccc2-n2ccc(COC(N)=O)n2)o1 [Example 374, (1-(3-(2-methyl-4-(4-(trifluoromethoxy)phenyl)oxazol-5-yl)-3′-(methylsulfonyl)-[1,1′-biphenyl]-4-yl)-1H-pyrazol-3-yl) methyl carbamate]",421,47
"Cn1nc(C(F)(F)C(N)=O)cc1-c1ccc(-c2cccc(S(C)(=O)=O)c2)cc1-n1nncc1-c1ccc(Cl)cc1Cl [Example 32, 2-(5-(3-(5-(2,4-dichlorophenyl)-1H-1,2,3-triazol-1-yl)-3′-(methylsulfonyl)-[1,1′-biphenyl]-4-yl)-1-methyl-1H-pyrazol-3-yl)-2,2-difluoroacetamide]",1760,43
"Cn1nc(C(F)(F)CO)cc1-c1ccc(-c2cccc(S(C)(=O)=O)c2)cc1-n1nncc1-c1ccc2c(c1)OC(F)(F)O2 [Example 35, 2-(5-(3-(5-(2,2-difluorobenzo[d][1,3]dioxol-5-yl)-1H-1,2,3-triazol-1-yl)-3′-(methylsulfonyl)-[1,1′-biphenyl]-4-yl)-1-methyl-1H-pyrazol-3-yl)-2,2-difluoroethanol]",2230,87
"CNS(=O)(=O)c1cccc(-c2ccc(-n3cc(Cl)c(C(F)(F)F)n3)c(-c3oc(C)nc3-c3ccc(OC(F)(F)F)cc3)c2)c1 [Example 444, 4′-(4-chloro-3-(trifluoromethyl)-1H-pyrazol-1-yl)-N-methyl-3′-(2-methyl-4-(4-(trifluoromethoxy)phenyl)oxazol-5-yl)-[1,1′-biphenyl]-3-sulfonamide]",76,63
"Cc1nc(-c2ccc3c(c2)OC(F)(F)O3)c(-c2cc(-c3cccc(S(C)(=O)=O)c3)ccc2-c2cc(CC(C)(C)O)nn2C)o1 [Example 121, 1-(5-(3-(4-(2,2-difluorobenzo[d][1,3]dioxol-5-yl)-2-methyloxazol-5-yl)-3′-(methylsulfonyl)-[1,1′-biphenyl]-4-yl)-1-methyl-1H-pyrazol-3-yl)-2-methylpropan-2-ol]",175,40
"CC(C)c1nc(-c2ccc(OC(F)(F)F)cc2)c(-c2cc(-c3cccc(S(C)(=O)=O)c3)ccc2-n2ccc(C(F)(F)F)n2)o1 [Example 340, 2-isopropyl-5-(3′-(methylsulfonyl)-4-(3-(trifluoromethyl)-1H-pyrazol-1-yl)biphenyl-3-yl)-4-(4-(trifluoromethoxy)phenyl)oxazole]",279,72
"CCOc1cc(C(F)(F)F)nn1-c1ccc(-c2cccc(S(C)(=O)=O)c2)cc1-c1nc(C)oc1-c1ccc(OC(F)(F)F)cc1 [Example 311, 4-(4-(5-ethoxy-3-(trifluoromethyl)-1H-pyrazol-1-yl)-3′-(methylsulfonyl)biphenyl-3-yl)-2-methyl-5-(4-(trifluoromethoxy)phenyl)oxazole]",798,37
"Cc1cc(C(F)(F)F)n(-c2ccc(-c3cccc(S(C)(=O)=O)c3)cc2-c2nc(C)oc2-c2ccc(OC(F)F)cc2)n1 [Example 393, 5-(4-(difluoromethoxy)phenyl)-2-methyl-4-(4-(3-methyl-5-(trifluoromethyl)-1H-pyrazol-1-yl)-3′-(methylsulfonyl)biphenyl-3-yl)oxazole]",744,40

# Molecules with a lower EC50, results first:
EC50 [nM],Emax [%],Structure (SMILES)
42,79,"Cn1nc(C(F)F)cc1-c1ccc(-c2cc(F)c(CO)c(S(C)(=O)=O)c2)cc1-n1nncc1-c1ccc(OC(F)(F)F)cc1 [Example 23, {4′-[3-(difluoromethyl)-1-methyl-1H-pyrazol-5-yl]-3-fluoro-5-(methylsulfonyl)-3′-(5-{4-[(trifluoromethyl)oxy]phenyl}-1H-1,2,3-triazol-1-yl)biphenyl-4-yl}methanol]"
26,89,"CCC(F)(F)c1cc(-c2ccc(-c3cc(F)c(CO)c(S(C)(=O)=O)c3)cc2-n2nncc2-c2ccc(OC(F)(F)F)cc2)n(C)n1 [Example 2, (4′-(3-(1,1-difluoropropyl)-1-methyl-1H-pyrazol-5-yl)-3-fluoro-5-(methylsulfonyl)-3′-(5-(4-(trifluoromethoxy)phenyl)-1H-1,2,3-triazol-1-yl)biphenyl-4-yl)methanol]"
61,26,"Cc1nc(-c2ccc3c(c2)OC(F)(F)O3)c(-c2cc(-c3cc(F)c(CO)c(S(C)(=O)=O)c3)ccc2-c2cc(C(F)(F)C(=O)NC(C)(C)C)nn2C)o1 [Example 84, N-tert-butyl-2-(5-(3-(4-(2,2-difluorobenzo[d][1,3]dioxol-5-yl)-2-methyloxazol-5-yl)-3′-fluoro-4′-(hydroxymethyl)-5′-(methylsulfonyl)biphenyl-4-yl)-1-methyl-1H-pyrazol-3-yl)-2,2-difluoroacetamide]"
11,95,"Cn1nc(C(F)(F)F)cc1-c1ccc(-c2cc(F)c(CO)c(S(C)(=O)=O)c2)cc1-n1nncc1-c1ccc(OC(F)(F)F)cc1 [Example 15, (3-fluoro-4′-(1-methyl-3-(trifluoromethyl)-1H-pyrazol-5-yl)-5-(methylsulfonyl)-3′-(5-(4-(trifluoromethoxy)phenyl)-1H-1,2,3-triazol-1-yl)biphenyl-4-yl)methanol]"
29,71,"Cc1nc(-c2ccc(OC(F)(F)F)cc2)c(-c2cc(-c3cc(F)c(CO)c(S(C)(=O)=O)c3)ccc2-n2ccc(C(F)(F)F)n2)o1 [Example 335, (3-fluoro-3′-(2-methyl-4-(4-(trifluoromethoxy)phenyl)oxazol-5-yl)-5-(methylsulfonyl)-4′-(3-(trifluoromethyl)-1H-pyrazol-1-yl)biphenyl-4-yl)methanol]"
57,87,"Cn1nc(C(C)(F)F)cc1-c1ccc(-c2cccc(S(C)(=O)=O)c2)cc1-n1nncc1-c1ccc(OC(F)(F)F)cc1 [Example 18, 1-{4-[3-(1,1-difluoroethyl)-1-methyl-1H-pyrazol-5-yl]-3′-(methylsulfonyl)biphenyl-3-yl}-5-{4-[(trifluoromethyl)oxy]phenyl}-1H-1,2,3-triazole]"
46,27,"Cc1nc(-c2ccc(OC(F)(F)F)cc2)c(-c2cc(-c3cccc(S(C)(=O)=O)c3)ccc2-c2cc(C(F)(F)C(C)(C)O)nn2C)o1 [Example 48, 1,1-difluoro-2-methyl-1-(1-methyl-5-(3-(2-methyl-4-(4-(trifluoromethoxy)phenyl)oxazol-5-yl)-3′-(methylsulfonyl)biphenyl-4-yl)-1H-pyrazol-3-yl)propan-2-ol]"
4,71,"Cc1nc(-c2ccc3c(c2)OC(F)(F)O3)c(-c2cc(-c3cccc(S(C)(=O)=O)c3)ccc2-n2cc(Cl)c(C(F)(F)F)n2)o1 [Example 419, 5-(4-(4-chloro-3-(trifluoromethyl)-1H-pyrazol-1-yl)-3′-(methylsulfonyl)-[1,1′-biphenyl]-3-yl)-4-(2,2-difluorobenzo[d][1,3]dioxol-5-yl)-2-methyloxazole]"
52,60,"Cc1nc(-c2ccc(OC(F)(F)F)cc2)c(-c2cc(-c3cccc(S(C)(=O)=O)c3)ccc2-n2ccc(C(C)(F)F)n2)o1 [Example 442, 5-(4-(3-(1,1-difluoroethyl)-1H-pyrazol-1-yl)-3′-(methylsulfonyl)-[1,1′-biphenyl]-3-yl)-2-methyl-4-(4-(trifluoromethoxy)phenyl)oxazole]"

# From US9751869B2, “LXR modulators” (BRISTOL-MYERS SQUIBB COMPANY, priority 2013, dated 2017)
